The record followed here is patent US8735406B2, “8-oxodihydropurine derivative” (Dainippon Sumitomo Pharma Co., Ltd., priority 2009, dated 2014).

The assay deals with T1, FAAH (Rattus norvegicus, UniProt P97612).
T1 construct: Preparation of Rat Brain Membranes Preparations (FAAH Enzyme Solution); from tissue; host or cells: rat cerebrum (brain membrane preparation)
T1 sequence (P97612 1-579): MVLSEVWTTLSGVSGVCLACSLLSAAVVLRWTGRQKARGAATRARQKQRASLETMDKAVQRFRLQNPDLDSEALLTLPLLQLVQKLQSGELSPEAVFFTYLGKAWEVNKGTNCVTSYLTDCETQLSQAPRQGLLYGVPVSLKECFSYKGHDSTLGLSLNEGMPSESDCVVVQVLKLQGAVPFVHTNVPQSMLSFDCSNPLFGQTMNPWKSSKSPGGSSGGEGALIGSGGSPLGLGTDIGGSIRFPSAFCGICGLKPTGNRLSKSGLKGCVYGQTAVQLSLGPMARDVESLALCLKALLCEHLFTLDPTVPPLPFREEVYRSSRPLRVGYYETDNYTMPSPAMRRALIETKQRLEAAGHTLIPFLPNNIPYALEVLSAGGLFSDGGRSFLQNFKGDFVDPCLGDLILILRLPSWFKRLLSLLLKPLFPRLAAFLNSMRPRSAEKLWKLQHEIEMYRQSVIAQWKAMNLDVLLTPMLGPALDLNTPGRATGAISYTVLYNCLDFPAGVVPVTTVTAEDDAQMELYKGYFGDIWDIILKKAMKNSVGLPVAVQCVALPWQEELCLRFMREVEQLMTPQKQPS
Kind of assay: Determination of FAAH inhibitory activity in rat (rat brain membrane preparations, [3H]-anandamide hydrolysis). It is filed as biochemical. To be noted: rat brain membrane preparations; for IC50: read-out: FAAH Inhibition IC50. Summed up:
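Rat cerebrum membranes (100 μg/mL protein) preincubated 10 min at 37 °C with compound (1% DMSO) in pH 7.6 Tris buffer with 1.5% BSA. Substrate 2 nM [3H]-anandamide plus 2 μM anandamide added for 10 min at 37 °C. [3H]-ethanolamine in the aqueous phase after chloroform/methanol extraction was scintillation counted; IC50 over 0.1 nM–1 μM.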

[1] abbreviates: 100 nM test substance, read-out: FAAH Inhibition, Inhibition Rate at 100 nM.
Where [2] appears, read: at 100 nM, read-out: FAAH Inhibition Inhibition Rate at 100 nM.

Like-named read-outs stand apart in the source and are kept apart here.

Regarding `CCN(C)C(=O)n1c(=O)n(C)c2cnc(CCc3cccc(OC)c3)nc21` [compound 557], the inhibition at 0.1 µM under setting [1] worked out at 66%. For the same compound, under “test substance 0.1 nM to 1 μM”, the half-inhibitory concentration (IC50) is 67 nM.

For the compound `CCN(C)C(=O)n1c(=O)n(C)c2cnc(CCc3cccc(OC(F)(F)F)c3)nc21` [compound 558], the inhibition at 0.1 µM under setting [1] turned out to be 83%. The IC50 (test substance 0.1 nM to 1 μM) came to 23 nM.

In the case of `Cc1ccc(CCc2ncc3c(n2)n(C(=O)N2CCC2)c(=O)n3C)cc1` [compound 559], under setting [1], the inhibition at 0.1 µM was determined as 97%. Moreover, the IC50 (test substance 0.1 nM to 1 μM) was found to be 10 nM.

In the case of `Cc1cccc(CCc2ncc3c(n2)n(C(=O)N2CCC2)c(=O)n3C)c1` [compound 560], the inhibition at 0.1 µM under setting [1] came to 91%. The IC50 (test substance 0.1 nM to 1 μM) worked out at 14 nM.

Turning to `CCc1ccc(CCc2ncc3c(n2)n(C(=O)N2CCC2)c(=O)n3C)cc1` [compound 561], the inhibition at 0.1 µM under setting [1] is 99%. Further, the IC50 (test substance 0.1 nM to 1 μM) is 10 nM.

On to `CCCc1ccc(CCc2ncc3c(n2)n(C(=O)N2CCC2)c(=O)n3C)cc1` [compound 562], for which the inhibition at 0.1 µM under setting [1] came to 101%. Further, the half-maximal inhibitory concentration (IC50) (test substance 0.1 nM to 1 μM) is 10 nM.

For the compound `CC(C)c1ccc(CCc2ncc3c(n2)n(C(=O)N2CCC2)c(=O)n3C)cc1` [compound 563], the inhibition at 0.1 µM under setting [1] turned out to be 100%. Further, the IC50 (test substance 0.1 nM to 1 μM) came out at 7 nM.

`CCCOc1ccc(CCc2ncc3c(n2)n(C(=O)N2CCC2)c(=O)n3C)cc1` [compound 564]: the inhibition at 0.1 µM under setting [1] is 98%. The IC50 (test substance 0.1 nM to 1 μM) came to 9 nM.

In the case of `Cc1ccc(CCc2ncc3c(n2)n(C(=O)N2CCC2)c(=O)n3C)cc1C` [compound 565], the inhibition at 0.1 µM under setting [1] was 99%. Besides, under “test substance 0.1 nM to 1 μM”, the IC50 came out at 10 nM.

Consider `Cc1cc(C)c(CCc2ncc3c(n2)n(C(=O)N2CCC2)c(=O)n3C)c(C)c1` [compound 566], for which the inhibition at 0.1 µM under setting [1] is 96%. The IC50 (test substance 0.1 nM to 1 μM) is 10 nM.

`Cn1c(=O)n(C(=O)N2CCC2)c2nc(CCc3cccc(C4CC4)c3)ncc21` [compound 572]: the inhibition at 0.1 µM under setting [1] is 83%. Also, the IC50 (test substance 0.1 nM to 1 μM) amounted to 99 nM.

As for `Cn1c(=O)n(C(=O)N2CCC2)c2nc(CCc3ccc(C4CC4)cc3)ncc21` [compound 573], the inhibition at 0.1 µM under setting [1] was determined as 99%. Moreover, the IC50 (test substance 0.1 nM to 1 μM) was 16 nM.

On to `Cn1c(=O)n(C(=O)N2CCC2)c2nc(CCc3ccc(Cl)cc3)ncc21` [compound 575], for which the inhibition at 0.1 µM under setting [1] was 102%. Further, the IC50 (test substance 0.1 nM to 1 μM) worked out at 10 nM.

As to `Cc1ccccc1CCc1ncc2c(n1)n(C(=O)N1CCC1)c(=O)n2C` [compound 591], the inhibition at 0.1 µM under setting [1] was determined as 57%. Also, the IC50 (test substance 0.1 nM to 1 μM) was 75 nM.

`Cn1c(=O)n(C(=O)N2CCC2)c2nc(CCc3cccc(C(F)F)c3)ncc21` [compound 594]: the inhibition at 0.1 µM under setting [1] was determined as 84%. Also, where the note is “test substance 0.1 nM to 1 μM”, the IC50 came to 21 nM.

In the case of `Cn1c(=O)n(C(=O)N2CCC2)c2nc(CCc3ccc(C(F)(F)F)cc3)ncc21` [compound 597], under setting [1], the inhibition at 0.1 µM was 92%. In addition, the IC50 (test substance 0.1 nM to 1 μM) worked out at 10 nM.

Turning to `CCOc1cccc(CCc2ncc3c(n2)n(C(=O)N2CCC2)c(=O)n3C)c1` [compound 604], the half-inhibitory concentration (IC50) stood at 15 nM. Moreover, the inhibition at 0.1 µM under setting [2] amounted to 92%.

On to `Cn1c(=O)n(C(=O)N2CCC2)c2nc(CCc3ccc(OC(F)(F)F)cc3)ncc21` [compound 609], for which the IC50 came out at 4 nM. Moreover, the inhibition at 0.1 µM under setting [2] is 108%.

Regarding `Cn1c(=O)n(C(=O)N2CC(c3ccc(F)cc3)C2)c2cnc(C3CC3)nc21` [compound 621], the half-inhibitory concentration (IC50) was 10 nM. Further, the inhibition at 0.1 µM under setting [2] was determined as 78%.

Consider `Cn1c(=O)n(C(=O)N2CC(c3cccc(F)c3)C2)c2cnc(C3CC3)nc21` [compound 622], for which the IC50 amounted to 1 nM. The inhibition at 0.1 µM under setting [2] was found to be 116%.

In the case of `Cn1c(=O)n(C(=O)N2CC(c3ccccc3)C2)c2cnc(C3CC3)nc21` [compound 623], the concentration for half-maximal inhibition (IC50) was 3 nM. Besides, the inhibition at 0.1 µM under setting [2] worked out at 87%.

Turning to `CCCc1ncc2c(n1)n(C)c(=O)n2C(=O)N1CC(c2ccc(F)cc2)C1` [compound 624], the half-inhibitory concentration (IC50) amounted to 18 nM. Under setting [2], the inhibition at 0.1 µM was found to be 97%.

With `CCCc1ncc2c(n1)n(C)c(=O)n2C(=O)N1CC(c2cccc(F)c2)C1` [compound 625], the half-maximal inhibitory concentration (IC50) was 7 nM. Also, the inhibition at 0.1 µM under setting [2] was 104%.

`CCCc1ncc2c(n1)n(C)c(=O)n2C(=O)N1CC(c2ccccc2)C1` [compound 626]: the half-maximal inhibitory concentration (IC50) was determined as 4 nM. Moreover, the inhibition at 0.1 µM under setting [2] turned out to be 128%.

For the compound `CCc1ncc2c(n1)n(C)c(=O)n2C(=O)N1CC(c2ccccc2)C1` [compound 627], the half-maximal inhibitory concentration (IC50) was found to be 4 nM. In addition, the inhibition at 0.1 µM under setting [2] worked out at 107%.

With `CCc1ncc2c(n1)n(C)c(=O)n2C(=O)N1CC(c2ccc(F)cc2)C1` [compound 628], the IC50 was 10 nM. The inhibition at 0.1 µM under setting [2] worked out at 90%.

Take `CN(C)C(=O)n1c(=O)n(C)c2cnc(CCOc3cccc(F)c3)nc21` [compound 639]: the IC50 was found to be 27 nM. In addition, the inhibition at 0.1 µM under setting [2] came out at 76%.

As for `CN(C)C(=O)n1c(=O)n(C)c2cnc(CCOc3ccc(Cl)cc3)nc21` [compound 640], the IC50 was found to be 12 nM. Further, the inhibition at 0.1 µM under setting [2] is 95%.

As to `CN(C)C(=O)n1c(=O)n(C)c2cnc(CCOc3cccc(C(F)(F)F)c3)nc21` [compound 642], the IC50 worked out at 9 nM. Under setting [2], the inhibition at 0.1 µM was 89%.

Take `CN(C)C(=O)n1c(=O)n(C)c2cnc(Cc3ccccc3Cl)nc21` [compound 652]: the IC50 came out at 31 nM. The inhibition at 0.1 µM under setting [2] was 60%.

Consider `CN(C)C(=O)n1c(=O)n(C)c2cnc(Cc3ccc(Cl)cc3)nc21` [compound 653], for which the half-maximal inhibitory concentration (IC50) stood at 11 nM. Moreover, the inhibition at 0.1 µM under setting [2] stood at 108%.

Consider `COCc1ncc2c(n1)n(C1CC1)c(=O)n2C(=O)N1CC(c2ccccc2)C1` [compound 663], for which the IC50 worked out at 24 nM. For the same compound, the inhibition at 0.1 µM under setting [2] amounted to 88%.

`COCc1ncc2c(n1)n(C1CC1)c(=O)n2C(=O)N1CC(c2ccc(F)cc2)C1` [compound 664]: the concentration for half-maximal inhibition (IC50) amounted to 10 nM. Besides, under setting [2], the inhibition at 0.1 µM is 102%.

Consider `COCc1ncc2c(n1)n(C1CC1)c(=O)n2C(=O)N1CC(c2cccc(F)c2)C1` [compound 665], for which the IC50 is 7 nM. The inhibition at 0.1 µM under setting [2] amounted to 99%.

Usually inhibition stands for the change of the read-out against control, counted positive when it falls. The term IC50 denotes the concentration at which inhibition is half-maximal.
